In article PMC5712521, “Dendrogenin A drives LXR to trigger lethal autophagy in cancers” (Nature Communications, 2017):

What was measured:
B16F10 cells = experiment: DDA-induced cytotoxicity (cell death); format: cell-based; conditions: B16F10; 5 µM 22(R)HC, 0.5 µM TO, 1 µM GW
Protocol: (§1) Melanoma cells were seeded into 6-well plates at 60,000 cells per well and AML cells at 250,000 cells/ml. The cells were then treated with control solvent vehicle (1/1000 ethanol in water) or DDA. Where indicated, treated cells were incubated in the presence or absence of each inhibitor for time shown. Cell death was determined by the trypan blue exclusion assay. Cells were scraped and resuspended in trypan blue solution (0.25% (w/v) in PBS) and counted in a Malassez cell under light microscopy. Cell viability was then quantified by counting viable (trypan blue-negative) and dead cells (trypan blue-positive).
(§2) Supplementary Fig. 1. a DDA inhibited m elanom a colony form ation. Melanom a cells were […]
(§3) a 0.5% solution of crystal violet in water and analyzed by microscopy. Images are representative of 5 independent experiments. b Evaluation of DDA-induced cytotoxicity (cytotox) and clonogenicity (clono) inhibition in a subset of human (H) and mouse (M) m elanom a cell lines. T he BRaf status in m elanom a cells lines is shown. […]

SKMEL-28 cells [1] = experiment: DDA-induced cytotoxicity (cell death); format: cell-based; conditions: SKMEL-28; 5 µM 22(R)HC, 0.5 µM TO, 1 µM GW
Protocol: as §1, §2, §3

SKMEL-28 cells [2] = experiment: RT-qPCR of LXR-responsive genes; format: cell-based, human; conditions: 8 h, 2.5 µM DDA, 10 µM 22(R)HC, 1 µM GW, 100 nM TO, vs vehicle
Protocol: Total RNA was extracted from tumor cells or MEFs using an RNA Extraction kit (Qiagen) or Trizol (Invitrogen), respectively, and was quantified with NanoDrop. Complementary DNA (cDNA) synthesis was performed with 1 μg RNA iScript Reverse Transcriptase (Bio-Rad). 25 ng cDNA was amplified using SyBR Supermix (Bio-Rad). RNA expression of the different genes of interest (Supplementary Tables 1, 2) were determined using the ΔΔCT method, where the difference in the threshold cycle (ΔCT) values of the target gene and the housekeeping gene for each sample was normalized to the ΔCT value of the untreated sample.
Supplementary Fig. 4. a R egulat ion of LXR-responsive genes b y D DA and other k nown LXR
ligands in B16F10 and SKMEL- 28 cells transfected with s iRN A targeting LXRβ ( siLXRβ) or
with contro l siRN A scram ble (siSC). Cells were treated for 8 h with either solvent vehicle, 2.5
µM DD A, 10 µM 22(R) hydrox ycholesterol (22(R)HC), 1 µM GW 3965 (GW ) or 100 nM
T O901317 (T O). […]

SKMEL-28 cells [3] = experiment: Immunoblot densitometry (LC3-II); format: cell-based, human; conditions: SKMEL-28, 24 h; 2.5 µM DDA, 10 µM 22(R)HC, 100 nM TO
Protocol: Immunoblotting was carried out as described previously. Proteins were separated on SDS-PAGE gels, electro-transferred onto polyvinylidene difluoride membranes and incubated overnight at 4 °C with the following antibodies: anti-Atg3, anti-Atg5 (D1G9), anti-Atg7 (D12B11), anti-Beclin (D40C5), anti-caspase-3 (Cell Signaling), anti-Bcl-2 (Millipore), anti-Bax (Millipore), anti-LC3 (Sigma-Aldrich), anti-LXRα (SantaCruz), anti-LXRβ (SantaCruz), anti-Nur77 (Active motif), anti-NOR1 (R&D systems), anti-PARP (Cell Signaling), anti-Vps34 (Cell Signaling), or anti-Actin (Millipore). For visualization, an ECL plus kit (Amersham Biosciences) was used, and chemiluminescence was measured by autoradiography (Supplementary Fig. 9). Specific bands were quantified with ImageQuant software.

SKMEL-28 cells [4] = experiment: Sterol analysis by GC/MS; format: cell-based, human; conditions: SKMEL-28, 24 h; 10 µM 22(R)HC, 1 µM GW, 100 nM TO; GC/MS
Protocol: Sterols in cell homogenates were extracted with a solvent mixture containing chloroform/methanol 2/1 (v/v) spiked with epicoprostanol as the internal standard. Lipids were partitioned in chloroform after the addition of saline and saponified by methanolic potassium hydroxide (0.5 N, 60 °C, 15 min). The fatty acids released were methylated with BF3-methanol (12%, 60 °C, 15 min) to not interfere with the chromatography of sterols. The sterols were re-extracted in hexane and silylated, as described previously. The trimethylsilylether derivatives of the sterols were separated by gas chromatography (GC) (Hewlett–Packard 6890 series) in a medium polarity capillary column RTX-65, (65% diphenyl 35% dimethyl polysiloxane, length 30 m, diameter 0.32 mm, film thickness 0.25 μm (Restesk, Evry, France)). The mass spectrometer (Agilent 5975 inert XL) in series with the GC was set up for the detection of positive ions. Ions were produced in the electron impact mode at 70 eV. Sterols were identified by the fragmentogram in the scanning mode and quantified by selective monitoring of the specific ions after normalization with the internal standard epicoprostanol and calibration with weighed standards. […]
Quantification of sterols ac cum ulation in SKMEL- 2 8 c ells either expressing LXRβ (shCT L) or with LXRβ (sh3 or sh4LXR β) k nock ed down after 24 h treatm ent with 2.5 µ M DD A or solvent vehicle. Anal yses were perform ed by GC/MS. f Quantification of sterols accumulated in m elanom a cells after 24 h treatm ent with 10 µM 22(R) HC, 1 µ M GW , 100 nM T O or solvent […]
vehicle. […]

Row | SMILES | cell death (B16F10 cells) | cell death (SKMEL-28 cells [1]) | ABCA1 mRNA (SKMEL-28 cells [2]; SKMEL-28, siCT) [fold] | ABCG1 mRNA (SKMEL-28 cells [2]; SKMEL-28, siCT) [fold] | ABCG5 mRNA (SKMEL-28 cells [2]; SKMEL-28, siCT) [fold] | ABCG8 mRNA (SKMEL-28 cells [2]; SKMEL-28, siCT) [fold] | LC3A mRNA (SKMEL-28 cells [2]; SKMEL-28, siCT) [fold] | LC3B mRNA (SKMEL-28 cells [2]; SKMEL-28, siCT) [fold] | LDLR mRNA (SKMEL-28 cells [2]; SKMEL-28, siCT) [fold] | NOR1 mRNA (SKMEL-28 cells [2]; SKMEL-28, siCT) [fold] | Nur77 mRNA (SKMEL-28 cells [2]; SKMEL-28, siCT) [fold] | SCD1 mRNA (SKMEL-28 cells [2]; SKMEL-28, siCT) [fold] | SREBP1 mRNA (SKMEL-28 cells [2]; SKMEL-28, siCT) [fold] | SULT2B1b mRNA (SKMEL-28 cells [2]; SKMEL-28, siCT) [fold] | ABCA1 mRNA (SKMEL-28 cells [2]; SKMEL-28, siLXRβ) [fold] | ABCG1 mRNA (SKMEL-28 cells [2]; SKMEL-28, siLXRβ) [fold] | ABCG5 mRNA (SKMEL-28 cells [2]; SKMEL-28, siLXRβ) [fold] | ABCG8 mRNA (SKMEL-28 cells [2]; SKMEL-28, siLXRβ) [fold] | LC3A mRNA (SKMEL-28 cells [2]; SKMEL-28, siLXRβ) [fold] | LC3B mRNA (SKMEL-28 cells [2]; SKMEL-28, siLXRβ) [fold] | also measured
1 | CC(C)CC[C@@H](O)[C@@H](C)[C@H]1CC[C@H]2[C@@H]3CC=C4C[C@@H](O)CC[C@]4(C)[C@H]3CC[C@]12C [22(R)HC, 22(R)-hydroxycholesterol] | no impact on cell death | no impact on cell death | 6.5±0.1 | 2.1±0.2 | 4.5±0.1 | 0.4±0.1 | 1.0±0.2 | 0.9±0.2 | 0.4±0.1 | 1.8±0.1 | 1.6±0.2 | 1.0±0.2 | 2.3±0.2 | 1.9±0.1 | 1.5±0.1 | 0.2±0.1 | 1.7±0.3 | 0.7±0.2 | 1.0±0.2 | 1.0±0.1 | LDLR mRNA (SKMEL-28 cells [2]; SKMEL-28, siLXRβ): 1.1±0.1 fold; NOR1 mRNA (SKMEL-28 cells [2]; SKMEL-28, siLXRβ): 1.2±0.2 fold; Nur77 mRNA (SKMEL-28 cells [2]; SKMEL-28, siLXRβ): 0.8±0.2 fold; SCD1 mRNA (SKMEL-28 cells [2]; SKMEL-28, siLXRβ): 0.8±0.1 fold; SREBP1 mRNA (SKMEL-28 cells [2]; SKMEL-28, siLXRβ): 0.9±0.3 fold; SULT2B1b mRNA (SKMEL-28 cells [2]; SKMEL-28, siLXRβ): 1.0±0.2 fold; LC3-II protein, densitometry relative to control (SKMEL-28 cells [3]): 1; Sterol amount/total sterol: 8-DHC (SKMEL-28 cells [4]): 0.05± 0.03; Sterol amount/total sterol: zymostenol (SKMEL-28 cells [4]): 0.37± 0.07
2 | O=C(O)Cc1cccc(OCCCN(Cc2cccc(C(F)(F)F)c2Cl)CC(c2ccccc2)c2ccccc2)c1 [GW, GW3965] | no impact on cell death | no impact on cell death | 15.1±2 | 3.2±0.5 | 3.1±0.5 | 1.5±0.1 | 0.8±0.2 | 0.9±0.1 | 1.0±0.2 | 1.5±0.1 | 0.7±0.2 | 1.6±0.1 | 2.6±0.3 | 2.8±0.1 | 2.2±0.3 | 1.2±0.1 | 1.1±0.1 | 0.8±0.1 | 1.0±0.3 | 1.1±0.3 | LDLR mRNA (SKMEL-28 cells [2]; SKMEL-28, siLXRβ): 0.9±0.1 fold; NOR1 mRNA (SKMEL-28 cells [2]; SKMEL-28, siLXRβ): 0.8±0.1 fold; Nur77 mRNA (SKMEL-28 cells [2]; SKMEL-28, siLXRβ): 0.9±0.2 fold; SCD1 mRNA (SKMEL-28 cells [2]; SKMEL-28, siLXRβ): 1.1±0.1 fold; SREBP1 mRNA (SKMEL-28 cells [2]; SKMEL-28, siLXRβ): 1.5±0.2 fold; SULT2B1b mRNA (SKMEL-28 cells [2]; SKMEL-28, siLXRβ): 1.1±0.2 fold; Sterol amount/total sterol: 8-DHC (SKMEL-28 cells [4]): 0.07± 0.01; Sterol amount/total sterol: zymostenol (SKMEL-28 cells [4]): 0.29± 0.09
